The test system of series [1] is Mycobacterium tuberculosis. Nature of the series: Antimycobacterial activity against Mycobacterium tuberculosis My 331/88 after 14 days by micromethod. The conditions noted are these: My 331/88, 336 h. It is filed as functional.
Series [2] has as its system Mycobacterium avium. Nature of the series: Antimycobacterial activity against Mycobacterium avium My 330/88 after 14 days by micromethod. It is filed as functional. Particulars: My 330/88, 336 h.
The subject of series [3] is Mycobacterium tuberculosis. Nature of the series: Antimycobacterial activity against Mycobacterium tuberculosis My 331/88 after 21 days by micromethod. Type of series: functional. Particulars: My 331/88, 504 h.
For series [4], the system named is Mycobacterium avium. Nature of the series: Antimycobacterial activity against Mycobacterium avium My 330/88 after 21 days by micromethod. Type of series: functional. Particulars: My 330/88, 504 h.
The subject of series [5] is Mycobacterium kansasii. As to the kind of experiment: Antimycobacterial activity against Mycobacterium kansasii My 235/80 after 7 days by micromethod. It is filed as functional. Particulars: My 235/80, 168 h.
In series [6] the test system is Mycobacterium kansasii. Nature of the series: Antimycobacterial activity against Mycobacterium kansasii My 235/80 after 14 days by micromethod. Type of series: functional. The conditions noted are these: My 235/80, 336 h.
Series [7] relates to Mycobacterium kansasii. Nature of the series: Antimycobacterial activity against Mycobacterium kansasii My 235/80 after 21 days by micromethod. It is filed as functional. Particulars: My 235/80, 504 h.
Series [8] concerns Mycobacterium kansasii. As to the kind of experiment: Antimycobacterial activity against Mycobacterium kansasii 6509/96 after 7 days by micromethod. Type of series: functional. Particulars: 6509/96, 168 h.
The test system of series [9] is Mycobacterium kansasii. Nature of the series: Antimycobacterial activity against Mycobacterium kansasii 6509/96 after 14 days by micromethod. Type of series: functional. Particulars: 6509/96, 336 h.
Series [10] concerns Mycobacterium kansasii. As to the kind of experiment: Antimycobacterial activity against Mycobacterium kansasii 6509/96 after 21 days by micromethod. It is filed as functional. The conditions noted are these: 6509/96, 504 h.
Series [11] relates to Staphylococcus aureus. Nature of the series: Antibacterial activity against Staphylococcus aureus ATCC 6538 after 24 to 48 hrs by broth micro dilution method. Type of series: functional, organism-based.
Series [12] has as its system Staphylococcus aureus. As to the kind of experiment: Antibacterial activity against methicillin-resistant Staphylococcus aureus H 5996/08 after 24 to 48 hrs by broth micro dilution method. Type of series: functional, organism-based.
The subject of series [13] is Staphylococcus epidermidis. As to the kind of experiment: Antibacterial activity against Staphylococcus epidermidis H 6966/08 after 24 to 48 hrs by broth micro dilution method. Type of series: functional, organism-based.
The test system of the next series is Enterococcus faecalis. Nature of the series: Antibacterial activity against Enterococcus faecalis J 14365/08 after 24 to 48 hrs by broth micro dilution method. It is filed as functional, organism-based.
The subject of a further series is Escherichia coli. Nature of the series: Antibacterial activity against Escherichia coli ATCC 8739 after 24 to 48 hrs by broth micro dilution method. Type of series: functional, organism-based.
For series [14], the system named is Klebsiella pneumoniae. Nature of the series: Antibacterial activity against Klebsiella pneumoniae D 11750/08 after 24 to 48 hrs by broth micro dilution method. It is filed as functional, organism-based.
For series [15], the system named is Klebsiella pneumoniae. As to the kind of experiment: Antibacterial activity against Klebsiella pneumoniae J 14368/08 after 24 to 48 hrs by broth micro dilution method. Type of series: functional, organism-based.
Series [16] has as its system Klebsiella pneumoniae. Nature of the series: Antibacterial activity against ESBL positive Klebsiella pneumoniae J 14368/08 after 24 to 48 hrs by broth micro dilution method. Type of series: functional, organism-based.
The subject of a further series is Pseudomonas aeruginosa. As to the kind of experiment: Antibacterial activity against Pseudomonas aeruginosa ATCC 9027 after 24 to 48 hrs by broth micro dilution method. Type of series: functional, organism-based.
The test system of a further series is Candida albicans. Nature of the series: Antifungal activity against Candida albicans ATCC 44859 after 24 to 48 hrs by broth micro dilution method. Type of series: functional, organism-based.
Another series relates to Candida tropicalis. As to the kind of experiment: Antifungal activity against Candida tropicalis 156 after 24 to 48 hrs by broth micro dilution method. Type of series: functional, organism-based.
The subject of a further series is Pichia kudriavzevii. As to the kind of experiment: Antifungal activity against Candida krusei E28 after 24 to 48 hrs by broth micro dilution method. Type of series: functional, organism-based.
The next series has as its system Nakaseomyces glabratus. Nature of the series: Antifungal activity against Candida glabrata 20/I after 24 to 48 hrs by broth micro dilution method. It is filed as functional, organism-based.
The next series deals with Trichosporon asahii. Nature of the series: Antifungal activity against Trichosporon asahii 1188 after 24 to 48 hrs by broth micro dilution method. It is filed as functional, organism-based.
In a further series the test system is Aspergillus fumigatus. Nature of the series: Antifungal activity against Aspergillus fumigatus 2318 after 24 to 48 hrs by broth micro dilution method. Type of series: functional, organism-based.
The subject of a further series is Lichtheimia corymbifera. As to the kind of experiment: Antifungal activity against Absidia corymbifera 272 after 24 to 48 hrs by broth micro dilution method. Type of series: functional, organism-based.
Series [17] concerns Trichophyton mentagrophytes. Nature of the series: Antifungal activity against Trichophyton mentagrophytes 445 after 72 to 120 hrs by broth micro dilution method. It is filed as functional, organism-based.
Series [18] in a line: Cytotoxicity against CHOK1 cells assessed as viability after 24 hrs by MTT assay. Type of series: cell-based. Particulars: Cricetulus griseus, CHO-K1, 24 h.
The subject of series [19] is Salmonella typhimurium. Nature of the series: Mutagenic activity in Salmonella typhimurium TA98 assessed as induction of reverse mutation at 50 uM. It is filed as toxicity, organism-based. Particulars: salmonella enterica subsp. enterica serovar typhimurium.
Series [20] has as its system Salmonella typhimurium. Nature of the series: Mutagenic activity in Salmonella typhimurium TA100 assessed as induction of reverse mutation at 50 uM. It is filed as toxicity, organism-based. The conditions noted are these: salmonella enterica subsp. enterica serovar typhimurium.

Values after ≈ are worked out from the molar mass of the structure shown. Active and inactive are the calls of the source. The rule behind the calls is not given here.

Regarding `O=[N+]([O-])c1cc(C[Se]c2nnn(Cc3ccccc3)n2)cc([N+](=O)[O-])c1`, the MIC in series [1] was found to be 1 µM (≈ 0.419 µg/mL); in the series with Mycobacterium avium [2] it was 16 µM (≈ 6.71 µg/mL); in [3], 1 µM (≈ 0.419 µg/mL); in the series on Mycobacterium avium [4], 32 µM (≈ 13.4 µg/mL); in the series on Mycobacterium kansasii [5], 1 µM (≈ 0.419 µg/mL); against Mycobacterium kansasii [6], 1 µM (≈ 0.419 µg/mL). For the same molecule, the MIC amounted to 1 µM (≈ 0.419 µg/mL) with Mycobacterium kansasii [7], 1 µM (≈ 0.419 µg/mL) in the series with Mycobacterium kansasii [8], 1 µM (≈ 0.419 µg/mL) against Mycobacterium kansasii [9] and 2 µM (≈ 0.839 µg/mL) with Mycobacterium kansasii [10]. Also, the outcome (with Staphylococcus aureus [11]; in the series on Staphylococcus aureus [12]; in series [13]; in the series with Enterococcus faecalis; in the series on Escherichia coli; in the series with Klebsiella pneumoniae [14]) was inactive. Moreover, the result in the series with Klebsiella pneumoniae [15], in the series on Klebsiella pneumoniae [16], with Pseudomonas aeruginosa, in the series with Candida albicans, with Candida tropicalis and in the series on Pichia kudriavzevii was inactive. Also, the result (in the series on Nakaseomyces glabratus; with Trichosporon asahii; in the series on Aspergillus fumigatus; in the series on Lichtheimia corymbifera; in [17]) was inactive. The IC50 in series [18] was 136 µM. The Activity entry in the series on Salmonella typhimurium [19] and in the series with Salmonella typhimurium [20] was “Toxic” each time.
In the case of `O=[N+]([O-])c1cc(Cn2nnnc2[Se]Cc2ccccc2)cc([N+](=O)[O-])c1`, the MIC is 8 µM (≈ 3.35 µg/mL) in series [1]; 32 µM (≈ 13.4 µg/mL) against Mycobacterium avium [2]; 8 µM (≈ 3.35 µg/mL) in series [3]; 32 µM (≈ 13.4 µg/mL) in the series with Mycobacterium avium [4]; 8 µM (≈ 3.35 µg/mL) in the series with Mycobacterium kansasii [5]; 16 µM (≈ 6.71 µg/mL) with Mycobacterium kansasii [6]. Also, the MIC against Mycobacterium kansasii [7] was 32 µM (≈ 13.4 µg/mL); in the series with Mycobacterium kansasii [8], 16 µM (≈ 6.71 µg/mL); in the series on Mycobacterium kansasii [9], 32 µM (≈ 13.4 µg/mL); in the series with Mycobacterium kansasii [10], 32 µM (≈ 13.4 µg/mL). Further, the IC50 in series [18] is 85 µM.
As for `O=[N+]([O-])c1ccc(C[Se]c2nnn(Cc3ccccc3)n2)c([N+](=O)[O-])c1`, the MIC in [1] was found to be 16 µM (≈ 6.71 µg/mL); in the series with Mycobacterium avium [2] it was 62 µM (≈ 26 µg/mL); in series [3], 16 µM (≈ 6.71 µg/mL); in the series on Mycobacterium avium [4], 62 µM (≈ 26 µg/mL); with Mycobacterium kansasii [5], 16 µM (≈ 6.71 µg/mL); with Mycobacterium kansasii [6], 16 µM (≈ 6.71 µg/mL). The MIC in the series with Mycobacterium kansasii [7] stood at 32 µM (≈ 13.4 µg/mL); against Mycobacterium kansasii [8], 32 µM (≈ 13.4 µg/mL); against Mycobacterium kansasii [9], 32 µM (≈ 13.4 µg/mL); against Mycobacterium kansasii [10], 62 µM (≈ 26 µg/mL). The IC50 in series [18] amounted to 22 µM.
Take `O=[N+]([O-])c1cc(Cn2nnnc2SCc2ccccc2)cc([N+](=O)[O-])c1`: the MIC in series [1] is 8 µM (≈ 2.98 µg/mL); with Mycobacterium avium [2] it was 125 µM (≈ 46.5 µg/mL); in series [3] it was 8 µM (≈ 2.98 µg/mL); in the series on Mycobacterium avium [4], 125 µM (≈ 46.5 µg/mL); against Mycobacterium kansasii [5] it was 32 µM (≈ 11.9 µg/mL); against Mycobacterium kansasii [6] it was 62 µM (≈ 23.1 µg/mL). Besides, the MIC amounted to 62 µM (≈ 23.1 µg/mL) in the series on Mycobacterium kansasii [7], 16 µM (≈ 5.96 µg/mL) against Mycobacterium kansasii [8], 32 µM (≈ 11.9 µg/mL) against Mycobacterium kansasii [9] and 32 µM (≈ 11.9 µg/mL) in the series with Mycobacterium kansasii [10]. Besides, the IC50 in series [18] worked out at 115 µM.
`O=[N+]([O-])c1cc(CSc2nnnn2Cc2ccc(Cl)c(Cl)c2)cc([N+](=O)[O-])c1`: the MIC was found to be 2 µM (≈ 0.883 µg/mL) in series [1]; 125 µM (≈ 55.2 µg/mL) against Mycobacterium avium [2]; 2 µM (≈ 0.883 µg/mL) in series [3]; 125 µM (≈ 55.2 µg/mL) in the series on Mycobacterium avium [4]; 2 µM (≈ 0.883 µg/mL) against Mycobacterium kansasii [5]; 4 µM (≈ 1.77 µg/mL) against Mycobacterium kansasii [6]. Further, the MIC against Mycobacterium kansasii [7] is 4 µM (≈ 1.77 µg/mL); against Mycobacterium kansasii [8] it was 2 µM (≈ 0.883 µg/mL); in the series with Mycobacterium kansasii [9], 4 µM (≈ 1.77 µg/mL); with Mycobacterium kansasii [10] it was 8 µM (≈ 3.53 µg/mL). In addition, the IC50 in series [18] is 140 µM.
Take `O=[N+]([O-])c1cc(CSc2nnn(Cc3ccc(Cl)c(Cl)c3)n2)cc([N+](=O)[O-])c1`: the MIC in [1] stood at 1 µM (≈ 0.441 µg/mL); against Mycobacterium avium [2], 125 µM (≈ 55.2 µg/mL); in [3], 1 µM (≈ 0.441 µg/mL); against Mycobacterium avium [4], 125 µM (≈ 55.2 µg/mL); against Mycobacterium kansasii [5] it was 8 µM (≈ 3.53 µg/mL); against Mycobacterium kansasii [6], 16 µM (≈ 7.06 µg/mL). For the same molecule, the MIC in the series with Mycobacterium kansasii [7] came out at 32 µM (≈ 14.1 µg/mL); against Mycobacterium kansasii [8] it was 16 µM (≈ 7.06 µg/mL); in the series with Mycobacterium kansasii [9], 32 µM (≈ 14.1 µg/mL); in the series with Mycobacterium kansasii [10] it was 32 µM (≈ 14.1 µg/mL). Besides, the IC50 in [18] worked out at 150 µM.

Source of the values: ChEMBL document CHEMBL3621085, “Tetrazole regioisomers in the development of nitro group-containing antitubercular agents” (Medchemcomm, 2015).
